Reference: US20250154686A1, “COMPOUND LIBRARY” (CHUGAI SEIYAKU KABUSHIKI KAISHA, priority 2021, published 2025)

Biological target: T1, Bcl-2 protein (Recombinant Human Bcl-2 Protein) (Homo sapiens, UniProt P10415)
T1 construct: purchased Novus Biologicals NBP2-34889
Test: AS-MS evaluation of binding of the Example 4 mixture library (1200 compounds/well) to Bcl-2, ASMS ratio (%)
How it was run: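 Recombinant human Bcl-2 at 20 μM final was exposed to a 1200-member compound pool (20 nM per compound) in pH 7.4 Tris-HCl buffer containing NaCl, Tween-20 and DTT. After 1 h at 23 °C, protein–ligand complexes passed SEC spin columns; LC/MS signals were compared with protein-free standard and blank samples to give ASMS ratio.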

[1] = AS-MS, Example 4 mixture library, Bcl-2, replicate n = 1
[2] = AS-MS, Example 4 mixture library, Bcl-2, replicate n = 2
[3] = AS-MS, mixture of 1200 compounds/well, Bcl-2 protein, replicate n = 1
[4] = AS-MS, mixture of 1200 compounds/well, Bcl-2 protein, replicate n = 2
[5] = replicate n = 1, mixture library, value belongs to the MS peak assigned to the compound
[6] = replicate n = 2, mixture library, value belongs to the MS peak assigned to the compound

T1 sequence (P10415 whole entry): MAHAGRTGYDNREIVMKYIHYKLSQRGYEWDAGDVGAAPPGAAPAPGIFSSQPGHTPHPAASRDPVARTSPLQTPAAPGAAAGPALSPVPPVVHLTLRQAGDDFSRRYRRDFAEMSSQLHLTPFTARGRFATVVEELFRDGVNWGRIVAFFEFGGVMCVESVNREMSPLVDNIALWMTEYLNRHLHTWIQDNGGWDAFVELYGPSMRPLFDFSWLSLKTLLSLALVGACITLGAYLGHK

SMILES | ASMS ratio (%) n = 1 [1] [%] | ASMS ratio (%) n = 2 [2] [%] | ASMS ratio (%) n = 1 [5] [%] | ASMS ratio (%) n = 2 [6] [%] | also measured
CCOc1cncc(-c2cc(CN3CCN(c4ccc(C(=O)NS(=O)(=O)CCC(F)(F)F)nn4)CC3)cc(OC(F)(F)F)c2)c1 [Compound B2N090-01, 6-[4-[[3-(5-Ethoxypyridin-3-yl)-5-(trifluoromethoxy)phenyl]methyl]piperazin-1-yl]-N-(3,3,3-trifluoropropylsulfonyl)pyridazine-3-carboxamide] | 0.0 | 0.0 |  |  | 
CCOc1cccc(C#Cc2ccccc2CN2CCN(c3ccc(C(=O)NS(=O)(=O)C(C)(C)C)nn3)CC2)c1 [Compound B2L095-01] | 0.0 | 0.0 |  |  | 
CCCNC(=O)c1ccc(N2CCN(Cc3cc(-c4cccc(OCC)c4)cc(C(F)(F)F)c3)CC2)nn1 [Compound B1M087-01] |  |  |  |  | ASMS ratio (%) n = 1 [3]: 3.8%; ASMS ratio (%) n = 2 [4]: 3.2%
CCOc1cccc(-c2ccc(CN3CCN(c4ccc(C(=O)NS(=O)(=O)CCC(F)(F)F)nn4)CC3)c(OC)c2)c1 [Compound B2N079-01, 6-[4-[[4-(3-Ethoxyphenyl)-2-methoxyphenyl]methyl]piperazin-1-yl]-N-(3,3,3-trifluoropropylsulfonyl)pyridazine-3-carboxamide] | 0.0 | 0.0 |  |  | 
CCOc1cncc(-c2ccc(C(=O)N3CCN(c4ccc(C(=O)NS(=O)(=O)CCC(F)(F)F)nn4)CC3)cc2C)c1 [Compound B2N004-01, 6-[4-[4-(5-Ethoxypyridin-3-yl)-3-methylbenzoyl]piperazin-1-yl]-N-(3,3,3-trifluoropropylsulfonyl)pyridazine-3-carboxamide] | 1.2 | −2.0 |  |  | 
CCOc1cccc(C#Cc2cc(C(=O)N3CCN(c4ccc(C(=O)NS(C)(=O)=O)cc4)CC3)cc(C(F)(F)F)c2)c1 [Compound B2I041-01, 4-[4-[3-[2-(3-Ethoxyphenyl)ethynyl]-5-(trifluoromethyl)benzoyl]piperazin-1-yl]-N-methylsulfonylbenzamide] |  |  | 0.0 | 0.0 | 
CCOc1cccc(-c2ccc(C(=O)N3CCN(c4ccc(C(=O)NS(=O)(=O)c5ccc(NCCSc6ccccc6)c(C(F)(F)F)c5)nn4)CC3)cc2F)c1 [Compound B2R005-01, 6-[4-[4-(3-Ethoxyphenyl)-3-fluorobenzoyl]piperazin-1-yl]-N-[4-(2-phenylsulfanylethylamino)-3-(trifluoromethyl)phenyl]sulfonylpyridazine-3-carboxamide] | 44.0 | 39.5 |  |  | 
CCCNC(=O)c1ccc(N2CCN(C(=O)c3cc(-n4cc(-c5cncc(OCC)c5)cn4)cc(C(F)(F)F)c3)CC2)nn1 [Compound B1M022-01] |  |  |  |  | ASMS ratio (%) n = 1 [3]: −13.6%; ASMS ratio (%) n = 2 [4]: 6.7%
CCOc1cccc(-c2ccc(CN3CCN(c4ccc(C(=O)NS(=O)(=O)C(C)(C)C)nn4)CC3)c(OC)c2)c1 [Compound B2L079-01] |  |  | 0.0 | 0.0 | 
CCCNC(=O)c1ccc(N2CCN(Cc3cc(-c4cncc(OCC)c4)cs3)CC2)cc1 [Compound B1M068-01] |  |  |  |  | ASMS ratio (%) n = 1 [3]: 1.1%; ASMS ratio (%) n = 2 [4]: 0.0%
CCOc1cncc(-c2cc(CN3CCN(c4ccc(C(=O)NS(=O)(=O)CCC(F)(F)F)cc4)CC3)cc(OCC)c2)c1 [Compound B2N056-01, 4-[4-[[3-Ethoxy-5-(5-ethoxypyridin-3-yl)phenyl]methyl]piperazin-1-yl]-N-(3,3,3-trifluoropropylsulfonyl)benzamide] | 0.0 | 0.0 |  |  | 
CCOc1cccc(-c2ccc(C(=O)N3CCN(c4ccc(C(=O)NS(=O)(=O)C(C)(C)C)nn4)CC3)cc2F)c1 [Compound B2L005-01] |  |  | 0.0 | 0.0 | 
CCOc1cccc(-c2cc(CN3CCN(c4ccc(C(=O)NS(C)(=O)=O)nn4)CC3)cc(C(F)(F)F)c2)c1 [Compound B2I087-01, 6-[4-[[3-(3-Ethoxyphenyl)-5-(trifluoromethyl)phenyl]methyl]piperazin-1-yl]-N-methylsulfonylpyridazine-3-carboxamide] |  |  | 1.3 | −0.9 | 
